Assay results taken from patent US7820623B2 (priority 2006, dated 2010).
pIC50: −log10 of the molar value. Bridge positions count the residues as written; N and C are the ends. Peptide text beside a SMILES is read from it.

How the values were obtained:
[1] = test system: thapsigargin-induced IL-2 production in human whole blood; conditions: read-out: Analogue Activity (IC50) WB/IL-2
[2] = test system: thapsigargin-induced IFN-g production in human whole blood; type: cell-based; conditions: read-out: Analogue Activity (IC50) WB/IFNg

| SMILES | pIC50 [1] | pIC50 [2] |
| --- | --- | --- |
| CC[C@H](C)[C@@H]1NC(=O)[C@H](CCCCN)NC(=O)[C@@H](NC(=O)[C@H](CCCCN)NC(=O)[C@@H](NC(=O)[C@H](CC(N)=O)NC(=O)[C@@H](NC(=O)[C@@H](NC(=O)[C@@H](NC(=O)CN)C(C)C)[C@@H](C)CC)[C@@H](C)CC)C(C)C)CSSC[C@@H]2NC(=O)[C@H](CCCNC(=N)N)NC(=O)CNC(=O)[C@H](Cc3ccccc3)NC(=O)[C@H](CCCNC(=N)N)NC(=O)[C@H](CCSC)NC(=O)CNC(=O)[C@H](C)NC(=O)[C@H](CCCCN)NC(=O)[C@H](CCCCN)NC(=O)[C@@H]3CSSC[C@@H](C(=O)N[C@H](C(=O)N4CCC[C@H]4C(=O)N[C@@H](CCCCN)C(=O)O)[C@@H](C)O)NC(=O)[C@H](Cc4c[nH]cn4)NC(=O)[C@H](CSSC[C@H](NC(=O)[C@H](CCC(N)=O)NC(=O)[C@H](CCCNC(=N)N)NC(=O)[C@H](CO)NC1=O)C(=O)N[C@@H](CC(C)C)C(=O)N[C@@H](CCC(=O)O)C(=O)N1CCC[C@H]1C(=O)N3)NC(=O)[C@H](CCCCN)NC(=O)CNC(=O)[C@H](CC(N)=O)NC(=O)[C@H](CCSC)NC2=O [K27R] (H-GVIINVKCKISRQCLEPCKKAGMRFGRCMNGKCHCTPK-OH; disulfide 8-28, 14-33, 18-35) | 7.82 | 7.97 |
| CC[C@H](C)[C@@H]1NC(=O)[C@H](CCCCN)NC(=O)[C@@H](NC(=O)[C@H](CCCCN)NC(=O)[C@@H](NC(=O)[C@H](CC(N)=O)NC(=O)[C@@H](NC(=O)[C@@H](NC(=O)[C@@H](NC(=O)CN)C(C)C)[C@@H](C)CC)[C@@H](C)CC)C(C)C)CSSC[C@@H]2NC(=O)[C@H](CCCCN)NC(=O)CNC(=O)[C@H](Cc3ccccc3)NC(=O)[C@H](CCCNC(=N)N)NC(=O)[C@H](CCSC)NC(=O)CNC(=O)[C@H](C)NC(=O)[C@H](CCCCN)NC(=O)[C@H](CCCCN)NC(=O)[C@@H]3CSSC[C@@H](C(=O)N[C@H](C(=O)N4CCC[C@H]4C(=O)N[C@@H](CCCCN)C(=O)O)[C@@H](C)O)NC(=O)[C@H](Cc4c[nH]cn4)NC(=O)[C@H](CSSC[C@H](NC(=O)[C@H](CCC(N)=O)NC(=O)[C@H](CCCNC(=N)N)NC(=O)[C@H](CO)NC1=O)C(=O)N[C@@H](CC(C)C)C(=O)N[C@@H](CCC(=O)O)C(=O)N1CCC[C@H]1C(=O)N3)NC(=O)[C@H](CCC(=O)O)NC(=O)CNC(=O)[C@H](CC(N)=O)NC(=O)[C@H](CCSC)NC2=O [K32E] (H-GVIINVKCKISRQCLEPCKKAGMRFGKCMNGECHCTPK-OH; disulfide 8-28, 14-33, 18-35) | 10.21 | 10.20 |
| CC[C@H](C)[C@@H]1NC(=O)[C@H](CCCCN)NC(=O)[C@@H](NC(=O)[C@H](CCCCN)NC(=O)[C@@H](NC(=O)[C@H](CC(N)=O)NC(=O)[C@@H](NC(=O)[C@@H](NC(=O)[C@@H](NC(=O)CN)C(C)C)[C@@H](C)CC)[C@@H](C)CC)C(C)C)CSSC[C@@H]2NC(=O)[C@H](CCCCN)NC(=O)CNC(=O)[C@H](Cc3ccccc3)NC(=O)[C@H](CCCNC(=N)N)NC(=O)[C@H](CCSC)NC(=O)CNC(=O)[C@H](C)NC(=O)[C@H](CCCCN)NC(=O)[C@H](CCCCN)NC(=O)[C@@H]3CSSC[C@@H](C(=O)N[C@H](C(=O)N4CCC[C@H]4C(=O)N[C@@H](CCCCN)C(=O)O)[C@@H](C)O)NC(=O)[C@H](Cc4c[nH]cn4)NC(=O)[C@H](CSSC[C@H](NC(=O)[C@H](CCC(N)=O)NC(=O)[C@H](CCCNC(=N)N)NC(=O)[C@H](CO)NC1=O)C(=O)N[C@@H](CC(C)C)C(=O)N[C@@H](CCC(=O)O)C(=O)N1CCC[C@H]1C(=O)N3)NC(=O)[C@H](CCCNC(=N)N)NC(=O)CNC(=O)[C@H](CC(N)=O)NC(=O)[C@H](CCSC)NC2=O [K32R] (H-GVIINVKCKISRQCLEPCKKAGMRFGKCMNGRCHCTPK-OH; disulfide 8-28, 14-33, 18-35) | 10.55 | 10.47 |
| CC[C@H](C)[C@@H]1NC(=O)[C@H](CCCCN)NC(=O)[C@@H](NC(=O)[C@H](CCCCN)NC(=O)[C@@H](NC(=O)[C@H](CC(N)=O)NC(=O)[C@@H](NC(=O)[C@@H](NC(=O)[C@@H](NC(=O)CN)C(C)C)[C@@H](C)CC)[C@@H](C)CC)C(C)C)CSSC[C@@H]2NC(=O)[C@H](CCCCN)NC(=O)CNC(=O)[C@H](Cc3ccccc3)NC(=O)[C@H](CCCNC(=N)N)NC(=O)[C@H](CCSC)NC(=O)CNC(=O)[C@H](C)NC(=O)[C@H](CCCCN)NC(=O)[C@H](CCCCN)NC(=O)[C@@H]3CSSC[C@@H](C(=O)N[C@H](C(=O)N4CCC[C@H]4C(=O)N[C@@H](CCC(=O)O)C(=O)O)[C@@H](C)O)NC(=O)[C@H](Cc4c[nH]cn4)NC(=O)[C@H](CSSC[C@H](NC(=O)[C@H](CCC(N)=O)NC(=O)[C@H](CCCNC(=N)N)NC(=O)[C@H](CO)NC1=O)C(=O)N[C@@H](CC(C)C)C(=O)N[C@@H](CCC(=O)O)C(=O)N1CCC[C@H]1C(=O)N3)NC(=O)[C@H](CCCCN)NC(=O)CNC(=O)[C@H](CC(N)=O)NC(=O)[C@H](CCSC)NC2=O [K38E] (H-GVIINVKCKISRQCLEPCKKAGMRFGKCMNGKCHCTPE-OH; disulfide 8-28, 14-33, 18-35) | 9.28 | 9.15 |
| CC[C@H](C)[C@@H]1NC(=O)[C@H](CCCCN)NC(=O)[C@@H](NC(=O)[C@H](CCCCN)NC(=O)[C@@H](NC(=O)[C@H](CC(N)=O)NC(=O)[C@@H](NC(=O)[C@@H](NC(=O)[C@@H](NC(=O)CN)C(C)C)[C@@H](C)CC)[C@@H](C)CC)C(C)C)CSSC[C@@H]2NC(=O)[C@H](CCCCN)NC(=O)CNC(=O)[C@H](Cc3ccccc3)NC(=O)[C@H](CCCNC(=N)N)NC(=O)[C@H](CCSC)NC(=O)CNC(=O)[C@H](C)NC(=O)[C@H](CCCCN)NC(=O)[C@H](CCCCN)NC(=O)[C@@H]3CSSC[C@@H](C(=O)N[C@H](C(=O)N4CCC[C@H]4C(=O)N[C@@H](CCCNC(=N)N)C(=O)O)[C@@H](C)O)NC(=O)[C@H](Cc4c[nH]cn4)NC(=O)[C@H](CSSC[C@H](NC(=O)[C@H](CCC(N)=O)NC(=O)[C@H](CCCNC(=N)N)NC(=O)[C@H](CO)NC1=O)C(=O)N[C@@H](CC(C)C)C(=O)N[C@@H](CCC(=O)O)C(=O)N1CCC[C@H]1C(=O)N3)NC(=O)[C@H](CCCCN)NC(=O)CNC(=O)[C@H](CC(N)=O)NC(=O)[C@H](CCSC)NC2=O [K38R] (H-GVIINVKCKISRQCLEPCKKAGMRFGKCMNGKCHCTPR-OH; disulfide 8-28, 14-33, 18-35) | 10.41 | 10.40 |
| CC[C@H](C)[C@@H]1NC(=O)[C@H](CCCCN)NC(=O)[C@@H](NC(=O)[C@H](CCCCN)NC(=O)[C@@H](NC(=O)[C@H](CC(N)=O)NC(=O)[C@@H](NC(=O)[C@@H](NC(=O)[C@@H](NC(=O)CN)C(C)C)[C@@H](C)CC)[C@@H](C)CC)C(C)C)CSSC[C@@H]2NC(=O)[C@H](CCCCN)NC(=O)CNC(=O)[C@H](Cc3ccccc3)NC(=O)[C@H](CCCNC(=N)N)NC(=O)[C@H](CCSC)NC(=O)CNC(=O)[C@H](C)NC(=O)[C@H](CCCCN)NC(=O)[C@H](CCCCN)NC(=O)[C@@H]3CSSC[C@@H](C(=O)N[C@H](C(=O)N4CCC[C@H]4C(=O)N[C@@H](CCCCN)C(=O)O)[C@@H](C)O)NC(=O)[C@H](Cc4c[nH]cn4)NC(=O)[C@H](CSSC[C@H](NC(=O)[C@H](CCC(N)=O)NC(=O)[C@H](CCCNC(=N)N)NC(=O)[C@H](CO)NC1=O)C(=O)N[C@@H](C)C(=O)N[C@@H](CCC(=O)O)C(=O)N1CCC[C@H]1C(=O)N3)NC(=O)[C@H](CCCCN)NC(=O)CNC(=O)[C@H](CC(N)=O)NC(=O)[C@H](CCSC)NC2=O [L15A] (H-GVIINVKCKISRQCAEPCKKAGMRFGKCMNGKCHCTPK-OH; disulfide 8-28, 14-33, 18-35) | 9.97 | 9.97 |
